Results: PubChem BioAssay (NCI)
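Test compounds were applied to cells in 96-well plates for 48 hours at 5 doses. The concentration for 50% growth inhibition is given as GI50. Definition used: TGI = concentration required for complete inhibition of growth.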

How the values were obtained:
Assay in all cases: DTP human tumour cell line panel, 48 h
786-0 renal = test system: 786-0 renal
SK-MEL-2 melanoma = test system: SK-MEL-2 melanoma
HL-60(TB) leukemia = test system: HL-60(TB) leukemia
LOX IMVI melanoma = test system: LOX IMVI melanoma
A498 renal = test system: A498 renal
SK-OV-3 ovarian = test system: SK-OV-3 ovarian
EKVX NSCLC = test system: EKVX NSCLC
UACC-257 melanoma = test system: UACC-257 melanoma
SNB-19 CNS = test system: SNB-19 CNS
UACC-62 melanoma = test system: UACC-62 melanoma
ACHN renal = test system: ACHN renal
MOLT-4 leukemia = test system: MOLT-4 leukemia
MDA-MB-231 breast = test system: MDA-MB-231 breast
SF-295 CNS = test system: SF-295 CNS
NCI-H522 lung = test system: NCI-H522 lung
HOP-92 NSCLC = test system: HOP-92 NSCLC
SK-MEL-5 melanoma = test system: SK-MEL-5 melanoma
PC-3 prostate = test system: PC-3 prostate
M14 melanoma = test system: M14 melanoma
SF-268 CNS = test system: SF-268 CNS
SK-MEL-28 melanoma = test system: SK-MEL-28 melanoma
U251 CNS = test system: U251 CNS
COLO 205 colon = test system: COLO 205 colon
SF-539 CNS = test system: SF-539 CNS
UO-31 renal = test system: UO-31 renal
OVCAR-5 ovarian = test system: OVCAR-5 ovarian
RPMI-8226 leukemia = test system: RPMI-8226 leukemia
T-47D breast = test system: T-47D breast
SR leukemia = test system: SR leukemia
SN12C renal = test system: SN12C renal
HOP-62 NSCLC = test system: HOP-62 NSCLC
TK-10 renal = test system: TK-10 renal
IGROV1 ovarian = test system: IGROV1 ovarian
MALME-3M melanoma = test system: MALME-3M melanoma
RXF 393 renal = test system: RXF 393 renal
CCRF-CEM leukemia = test system: CCRF-CEM leukemia
OVCAR-8 ovarian = test system: OVCAR-8 ovarian
HCC-2998 colon = test system: HCC-2998 colon
BT-549 breast = test system: BT-549 breast
HT29 colon = test system: HT29 colon
SNB-75 CNS = test system: SNB-75 CNS
MDA-MB-435 = test system: MDA-MB-435
A549 NSCLC = test system: A549 NSCLC
KM12 colon = test system: KM12 colon
HCT-15 colon = test system: HCT-15 colon
SW-620 colon = test system: SW-620 colon
DU-145 prostate = test system: DU-145 prostate
CAKI-1 renal = test system: CAKI-1 renal
HS 578T breast = test system: HS 578T breast
OVCAR-4 ovarian = test system: OVCAR-4 ovarian
MCF7 breast = test system: MCF7 breast
NCI-H460 lung = test system: NCI-H460 lung
HCT-116 colon = test system: HCT-116 colon
NCI/ADR-RES ovarian = test system: NCI/ADR-RES ovarian
K-562 leukemia = test system: K-562 leukemia
NCI-H226 lung = test system: NCI-H226 lung
NCI-H23 lung = test system: NCI-H23 lung
OVCAR-3 ovarian = test system: OVCAR-3 ovarian

CC1(C)N=C(N)N=C(N)N1c1ccc(OCCCNC(=O)Nc2ccc(S(=O)(=O)F)cc2)c(Cl)c1 gave a GI50 (786-0 renal) of 0.417 µM, a TGI (786-0 renal) of over 100 µM and a GI50 (SK-MEL-2 melanoma) of 0.79 µM. The TGI (SK-MEL-2 melanoma) was over 100 µM, the GI50 (HL-60(TB) leukemia) was 0.113 µM and the TGI (HL-60(TB) leukemia) was over 65.3 µM. It also gave a GI50 (LOX IMVI melanoma) of 0.12 µM, a TGI (LOX IMVI melanoma) of over 100 µM and a GI50 (A498 renal) of 4.57 µM. For the same molecule, the TGI (A498 renal) was 99.4 µM, the GI50 (SK-OV-3 ovarian) was 8.83 µM and the TGI (SK-OV-3 ovarian) was over 100 µM. It also gave a GI50 (EKVX NSCLC) of 0.874 µM, a TGI (EKVX NSCLC) of over 100 µM and a GI50 (UACC-257 melanoma) of 5.11 µM. For the same molecule, the TGI (UACC-257 melanoma) was over 100 µM, the GI50 (SNB-19 CNS) was 1.08 µM and the TGI (SNB-19 CNS) was over 100 µM. The GI50 (UACC-62 melanoma) was 0.268 µM, the TGI (UACC-62 melanoma) was over 100 µM and the GI50 (ACHN renal) was 4.45 µM. For the same molecule, the TGI (ACHN renal) was over 100 µM, the GI50 (MOLT-4 leukemia) was 0.386 µM and the TGI (MOLT-4 leukemia) was over 100 µM. The GI50 (MDA-MB-231 breast) was 3.34 µM, the TGI (MDA-MB-231 breast) was over 100 µM and the GI50 (SF-295 CNS) was 0.504 µM. It also gave a TGI (SF-295 CNS) of over 100 µM, a GI50 (NCI-H522 lung) of 0.79 µM and a TGI (NCI-H522 lung) of over 100 µM. For the same molecule, the GI50 (HOP-92 NSCLC) was 2.74 µM, the TGI (HOP-92 NSCLC) was 61.9 µM and the GI50 (SK-MEL-5 melanoma) was 0.146 µM. For the same molecule, the TGI (SK-MEL-5 melanoma) was 13.3 µM, the GI50 (PC-3 prostate) was 0.165 µM and the TGI (PC-3 prostate) was over 73 µM. For the same molecule, the GI50 (M14 melanoma) was 0.493 µM, the TGI (M14 melanoma) was over 100 µM and the GI50 (SF-268 CNS) was 0.199 µM. It also gave a TGI (SF-268 CNS) of over 100 µM, a GI50 (SK-MEL-28 melanoma) of 1.74 µM and a TGI (SK-MEL-28 melanoma) of over 100 µM. It also gave a GI50 (U251 CNS) of 0.211 µM, a TGI (U251 CNS) of over 100 µM and a GI50 (COLO 205 colon) of 0.854 µM. It also gave a TGI (COLO 205 colon) of over 100 µM, a GI50 (SF-539 CNS) of 1.3 µM and a TGI (SF-539 CNS) of over 67.4 µM. The GI50 (UO-31 renal) was 69.5 µM, the TGI (UO-31 renal) was over 100 µM and the GI50 (OVCAR-5 ovarian) was 0.419 µM. The TGI (OVCAR-5 ovarian) was over 100 µM, the GI50 (RPMI-8226 leukemia) was 1.64 µM and the TGI (RPMI-8226 leukemia) was over 75 µM. It also gave a GI50 (T-47D breast) of 5.65 µM, a TGI (T-47D breast) of over 100 µM and a GI50 (SR leukemia) of 0.0376 µM. It also gave a TGI (SR leukemia) of over 100 µM, a GI50 (SN12C renal) of 0.111 µM and a TGI (SN12C renal) of over 100 µM. For the same molecule, the GI50 (HOP-62 NSCLC) was 0.82 µM, the TGI (HOP-62 NSCLC) was over 100 µM and the GI50 (TK-10 renal) was 0.907 µM. It also gave a TGI (TK-10 renal) of over 100 µM, a GI50 (IGROV1 ovarian) of 0.281 µM and a TGI (IGROV1 ovarian) of over 100 µM. For the same molecule, the GI50 (MALME-3M melanoma) was 2.02 µM, the TGI (MALME-3M melanoma) was over 100 µM and the GI50 (RXF 393 renal) was 12.9 µM. It also gave a TGI (RXF 393 renal) of over 100 µM, a GI50 (CCRF-CEM leukemia) of 0.208 µM and a TGI (CCRF-CEM leukemia) of over 100 µM. For the same molecule, the GI50 (OVCAR-8 ovarian) was 0.697 µM, the TGI (OVCAR-8 ovarian) was over 100 µM and the GI50 (HCC-2998 colon) was 0.832 µM. The TGI (HCC-2998 colon) was over 100 µM, the GI50 (BT-549 breast) was 11.5 µM and the TGI (BT-549 breast) was over 100 µM. The GI50 (HT29 colon) was 0.1 µM, the TGI (HT29 colon) was over 100 µM and the GI50 (SNB-75 CNS) was 1.02 µM. The TGI (SNB-75 CNS) was 50 µM, the GI50 (MDA-MB-435) was 0.143 µM and the TGI (MDA-MB-435) was over 100 µM. The GI50 (A549 NSCLC) was 0.0732 µM, the TGI (A549 NSCLC) was over 100 µM and the GI50 (KM12 colon) was 0.504 µM. It also gave a TGI (KM12 colon) of over 100 µM, a GI50 (HCT-15 colon) of 6.62 µM and a TGI (HCT-15 colon) of over 100 µM. For the same molecule, the GI50 (SW-620 colon) was 0.0778 µM, the TGI (SW-620 colon) was over 100 µM and the GI50 (DU-145 prostate) was 0.277 µM. The TGI (DU-145 prostate) was over 100 µM, the GI50 (CAKI-1 renal) was 17.9 µM and the TGI (CAKI-1 renal) was over 95 µM. For the same molecule, the GI50 (HS 578T breast) was 4.6 µM, the TGI (HS 578T breast) was over 78.8 µM and the GI50 (OVCAR-4 ovarian) was 4.05 µM. For the same molecule, the TGI (OVCAR-4 ovarian) was over 100 µM, the GI50 (MCF7 breast) was 0.238 µM and the TGI (MCF7 breast) was over 100 µM. For the same molecule, the GI50 (NCI-H460 lung) was 0.0486 µM, the TGI (NCI-H460 lung) was over 37.6 µM and the GI50 (HCT-116 colon) was 0.0613 µM. It also gave a TGI (HCT-116 colon) of over 100 µM, a GI50 (NCI/ADR-RES ovarian) of 98.5 µM and a TGI (NCI/ADR-RES ovarian) of over 100 µM. The GI50 (K-562 leukemia) was 0.0497 µM, the TGI (K-562 leukemia) was over 100 µM and the GI50 (NCI-H226 lung) was 11.2 µM. The TGI (NCI-H226 lung) was over 100 µM, the GI50 (NCI-H23 lung) was 0.488 µM and the TGI (NCI-H23 lung) was over 100 µM. For the same molecule, the GI50 (OVCAR-3 ovarian) was 1.55 µM and the TGI (OVCAR-3 ovarian) was over 100 µM.
